Source: article PMC11384906, “PAR1-mediated Non-periodical Synchronized Calcium Oscillations in Human Mesangial Cells” (Function, 2024)

Tests used:
[1] = tested on: mesangial cells; conditions: cited from earlier work
[2] = tested on: endothelial cells; conditions: cited from earlier work
[3] = tested on: platelets; conditions: cited from earlier work
[4] = tested on: MCs; conditions: cited from earlier work
[5] = tested on: neuronal cells; conditions: cited from earlier work
[6] = tested on: vascular smooth muscle cells; conditions: cited from earlier work
[7] = tested on: monocytes; conditions: cited from earlier work
[8] = tested on: freshly isolated Wistar rat glomeruli; conditions: Ang II 60 µM, acute application; text b29 words it 'up to'
Excerpt: Sixteen-week Wistar Kyoto male rats were obtained from Charles River and were kept in a light-controlled environment with a 12:12-h light/dark cycle and given free access to water (filtered, RO water) and food (5V75-PicoLab Verified 75 IF, LabDiet, USA).
Briefly, male Wistar rat kidneys were harvested, decapsulated, and used to isolate glomeruli by differential sieving. Freshly isolated glomeruli were collected and stored on ice in a 15-mL tube with a 5% BSA (Sigma-Aldrich, # A8327)/RPMI-1640 solution with non-permeable 150 kDa TRITC-dextran (1 mg/mL, TdB Labs, #TD150, Uppsala, Sweden). […] Glomeruli were attached to poly-L-lysine covered glass-bottom dishes and covered with the extracellular solution containing 150 kDa TRITC dextran. Z-stacks with 18 consecutive focal planes (3 µm each) were collected every 1 min, allowing glomeruli volume reconstruction. Output files were imported into Imaris Software (Oxford Bitplane, version 9.6.1), reconstructed in 3D, and processed to calculate glomerular volume.

For thrombin, the “Concentration at which significant Ca2+ response was detected” value [1] is given as “around 0.1 U/mL”, the “Concentration at which significant Ca2+ response was detected (molar equivalent)” value ([1]; equivalent of 0.1 U/mL) is given as “approximately 1 nM” and the “Thrombin concentration required to activate endothelial cells” value [2] is given as 0.5 to 2 U/mL. For the same substance, the “Thrombin concentration sufficient to induce Ca2+ mobilization” value [3] was 0.1 to 1 U/mL, the “Effect on MC proliferation and synthesis” value [4] was “stimulate MC proliferation and synthesis of prostaglandins, nitric oxide, endothelin-1, extracellular matrix components, and chemokines” and the “Thrombin concentration required to activate intracellular Ca2+ signaling” value [5] was 1-5 U/mL. For the same substance, the “Thrombin concentration required to activate vascular smooth muscle cells” value [6] was 0.5 to 2 U/mL and the “Thrombin concentration required to activate intracellular Ca2+ signaling” value [7] was 1-5 U/mL.
Work on Angiotensin II [Ang II] yielded a Glomerular volume reduction [8] of 20.7%.
